Experimental data reported in patent US6368831B1, “Treatment of hyperproliferative disorders” (Childrens Hospital Los Angeles, priority 1998, dated 2002).

What was measured:
[1] = system: CHLA-90 neuroblastoma cell line; assay: Ceramide assay, CHLA-90; assay type: cell-based, human; settings: CHLA-90 (drug resistant); 10 μM fenretinide; 20% O2
Method: The ceramide assay is carried out as follows. 500,000 neuroblastoma cells/well are replicate plated in six-well tissue culture plates and allowed to attach overnight. Tritiated (3H)-palmitic acid (a lipid precursor) is added to 1 microcure/cc and fenretinide added to a final concentration of 10 uM. Control cells receive tritiated label but no drug. At the indicated time, cells are harvested from triplicate wells, washed, and lipids extracted with methanol, acetic acid, water, and chloroform. The organic layer (containing the tritium label incorporated into lipids) is isolated and dried down by a nitrogen stream. The lipid sample is dissolved in chloroform: methanol and 10% of each sample assayed to estimate the total tritium in the lipid sample. The lipids in sample fractions, together with unlabeled ceramide standards, are then separated by thin layer chromatography and the plates developed by iodine vapor. The region of the plate corresponding to the ceramide standard is scraped and the tritium of the co-migrating sample ceramide is measured. Total sample ceramide is then expressed as percent tritium label in ceramide versus tritium in total lipid. […]

CHLA-90 cells = assay: Morphological assessment of apoptosis and necrosis (Hoechst 33342 / propidium iodide), CHLA-90; assay type: cell-based, human
Method: Methods. To determine the manner in which 4-HPR or HPR+safingol induced cell death in neuroblastoma cells, morphological evidence of apoptosis and/or necrosis was assessed in CHLA-90 cells in the presence or absence of a specific as inhibitor of apoptosis, the neural cell-penetrant, pan-caspase enzyme inhibitor, BOC-d-fink (Enzyme Systems Products, Livermore, Calif.). […] CHLA-90 cells were plated in duplicate in whole medium in Lab Tek chamber slides (Nunc, Naperville, Ill.), allowed to attach for 24 hours, and then treated in the presence or absence of BOC-d-fink (40 μM) for one hour prior to treatment with HPR (10 μM). Control cells were treated with vehicle solvents of 0. 1% ethanol (4-HPR) and/or 0.2% DMSO (BOC-d-fink). Morphological features of apoptosis (DNA condensation and/or apoptotic bodies) were visualized in undetached cells at +24 or +48 hours using blue nuclear fluorescence induced by the supravital DNA stain Hoechst 33342 (10 μg/ml for 30 mins at 37° C.), while necrotic cells and advanced apoptotic cells were recognized by red fluorescent staining with propidium iodide (0.5 μM/ml). Red fluorescently-staining cells with condensed nuclear remnants were scored as apoptotic cells. […] Mutiple random fields of cells (of ˜100-500 cells each) were counted and photographed for viable cells, apoptotic cells, and necrotic cells. […]

CC1=C(/C=C/C(C)=C/C=C/C(C)=C/C(=O)Nc2ccc(O)cc2)C(C)(C)CCC1 [HPR, all-trans-N-(4-hydroxyphenyl)retinamide]
ceramide generation [1]: generate ceramide | morphological nuclear changes indicative of apoptosis (CHLA-90 cells; HPR 10 μM alone, relative to controls (P=0.006)): induced significant apoptosis | morphological evidence of necrosis (CHLA-90 cells; HPR 10 μM, relative to controls (P=0.002)): significant morphological evidence of necrosis
